# In patent publication US9255295B2, “Method for evaluating the sensitizing potential of a test compound” (IMMUNOSEARCH, priority 2010, dated 2016):
# Tested on: genes specific for sensitization (BRAK, CTSS, DAPK2, FABP4, HSP27, IL18, HSP90, IL1R2, TPSAB1, CXCR1, DEFB1, DHFR, EHF, IVL, KRT4, MELANA, NGAL, PDZK1IP1, PI3 …)
# Experiment: Expression of the other (non-ARE) sensitization-specific genes in EPISKIN reconstructed skin (quantitative RT-PCR)
# Assay type: cell-based, human
# Conditions: for MELANA expression / PDZK1iP1 expression / SERPINB3 expression / BRAK expression / DHFR expression / HSP90 expression / IL18 expression / KRT4 expression: compared to the control
compound,measurement,setting,value
O=CC=O [Glyoxal],MELANA expression,1%,1.1
same,PDZK1iP1 expression,1%,1.0
same,SERPINB3 expression,1%,1.1
same,BRAK NUMBER OF GENES grade,10%,"0 (if this expression is lower, the grade is 0)"
same,CTSS expression compared to control,10%,2.2
same,CTSS grade (NUMBER OF GENES),10%,"1 (If the expression is greater than 1.3 compared to the control, a grade of 11s given)"
same,CXCR1 expression compared to control,10%,1.8
same,CXCR1 grade (NUMBER OF GENES),10%,"1 (If the expression is greater than 1.3 compared to the control, a grade of 11s given)"
same,DAPK2 expression compared to control,10%,0.9
same,DAPK2 grade (NUMBER OF GENES),10%,"0 (if this expression is lower, the grade is 0)"
same,DEFB1 expression compared to control,10%,1.6
same,DEFB1 grade (NUMBER OF GENES),10%,"1 (If the expression is greater than 1.3 compared to the control, a grade of 11s given)"
same,DHFR NUMBER OF GENES grade,10%,"0 (if this expression is lower, the grade is 0)"
same,EHF expression compared to control,10%,0.9
same,EHF grade (NUMBER OF GENES),10%,"0 (if this expression is lower, the grade is 0)"
same,FABP4 expression compared to control,10%,0.8
same,FABP4 grade (NUMBER OF GENES),10%,"0 (if this expression is lower, the grade is 0)"
same,HSP27 expression compared to control,10%,0.8
same,HSP27 grade (NUMBER OF GENES),10%,"0 (if this expression is lower, the grade is 0)"
same,HSP90 NUMBER OF GENES grade,10%,"1 (If the expression is greater than 1.3 compared to the control, a grade of 11s given)"
same,IL18 NUMBER OF GENES grade,10%,"1 (If the expression is greater than 1.3 compared to the control, a grade of 11s given)"
same,IVL expression compared to control,10%,1.6
same,IVL grade (NUMBER OF GENES),10%,"1 (If the expression is greater than 1.3 compared to the control, a grade of 11s given)"
same,KRT4 NUMBER OF GENES grade,10%,"1 (If the expression is greater than 1.3 compared to the control, a grade of 11s given)"
same,MELANA NUMBER OF GENES grade,10%,"0 (if this expression is lower, the grade is 0)"
same,NGAL expression compared to control,10%,1.3
same,NGAL grade (NUMBER OF GENES),10%,"1 (If the expression is greater than 1.3 compared to the control, a grade of 11s given)"
same,P13 expression compared to control,10%,1.3
same,P13 grade (NUMBER OF GENES),10%,"1 (If the expression is greater than 1.3 compared to the control, a grade of 11s given)"
same,PDZK1iP1 NUMBER OF GENES grade,10%,"1 (If the expression is greater than 1.3 compared to the control, a grade of 11s given)"
same,SENS >1.3 (number of genes),10%,13
same,SERPINB3 NUMBER OF GENES grade,10%,"1 (If the expression is greater than 1.3 compared to the control, a grade of 11s given)"
same,TOTAL SENS (number of genes),10%,13
same,BRAK expression,10%,0.5
same,DHFR expression,10%,0.9
same,HSP90 expression,10%,1.5
same,IL18 expression,10%,1.3
same,KRT4 expression,10%,1.4
same,MELANA expression,10%,1.1
same,PDZK1iP1 expression,10%,1.4
same,SERPINB3 expression,10%,1.3
same,BRAK NUMBER OF GENES grade,50%,"0 (if this expression is lower, the grade is 0)"
same,CTSS expression compared to control,50%,2.7
same,CTSS grade (NUMBER OF GENES),50%,"1 (If the expression is greater than 1.3 compared to the control, a grade of 11s given)"
same,CXCR1 expression compared to control,50%,2.7
same,CXCR1 grade (NUMBER OF GENES),50%,"1 (If the expression is greater than 1.3 compared to the control, a grade of 11s given)"
same,DAPK2 expression compared to control,50%,0.9
same,DAPK2 grade (NUMBER OF GENES),50%,"0 (if this expression is lower, the grade is 0)"
same,DEFB1 expression compared to control,50%,1.6
same,DEFB1 grade (NUMBER OF GENES),50%,"1 (If the expression is greater than 1.3 compared to the control, a grade of 11s given)"
same,DHFR NUMBER OF GENES grade,50%,"0 (if this expression is lower, the grade is 0)"
same,EHF expression compared to control,50%,0.9
same,EHF grade (NUMBER OF GENES),50%,"0 (if this expression is lower, the grade is 0)"
same,FABP4 expression compared to control,50%,0.8
same,FABP4 grade (NUMBER OF GENES),50%,"0 (if this expression is lower, the grade is 0)"
same,HSP27 expression compared to control,50%,0.8
same,HSP27 grade (NUMBER OF GENES),50%,"0 (if this expression is lower, the grade is 0)"
same,HSP90 NUMBER OF GENES grade,50%,"1 (If the expression is greater than 1.3 compared to the control, a grade of 11s given)"
same,IL18 NUMBER OF GENES grade,50%,"0 (if this expression is lower, the grade is 0)"
same,IVL expression compared to control,50%,1.5
same,IVL grade (NUMBER OF GENES),50%,"1 (If the expression is greater than 1.3 compared to the control, a grade of 11s given)"
same,KRT4 NUMBER OF GENES grade,50%,"0 (if this expression is lower, the grade is 0)"
same,MELANA NUMBER OF GENES grade,50%,"0 (if this expression is lower, the grade is 0)"
same,NGAL expression compared to control,50%,0.6
same,NGAL grade (NUMBER OF GENES),50%,"0 (if this expression is lower, the grade is 0)"
same,P13 expression compared to control,50%,1.4
same,P13 grade (NUMBER OF GENES),50%,"1 (If the expression is greater than 1.3 compared to the control, a grade of 11s given)"
same,PDZK1iP1 NUMBER OF GENES grade,50%,"0 (if this expression is lower, the grade is 0)"
same,SENS >1.3 (number of genes),50%,8
same,SERPINB3 NUMBER OF GENES grade,50%,"1 (If the expression is greater than 1.3 compared to the control, a grade of 11s given)"
same,TOTAL SENS (number of genes),50%,8
same,BRAK expression,50%,0.5
same,DHFR expression,50%,0.9
same,HSP90 expression,50%,2.0
same,IL18 expression,50%,1.0
same,KRT4 expression,50%,0.6
same,MELANA expression,50%,1.1
same,PDZK1iP1 expression,50%,1.0
same,SERPINB3 expression,50%,1.7
